Measured values published in patent US20040052824A1, “Micellar colloidal pharmaceutical composition containing a lipophilic active principle” (priority 2000, published 2004).

Test: not given
Settings: cited from earlier work

Row | Compound | solubility in water
1 | CC(=O)O[C@H]1C(=O)[C@@]2(C)[C@H]([C@H](OC(=O)c3ccccc3)[C@]3(O)C[C@H](OC(=O)[C@H](O)[C@@H](NC(=O)c4ccccc4)c4ccccc4)C(C)=C1C3(C)C)[C@]1(OC(C)=O)CO[C@@H]1C[C@@H]2O [paclitaxel] | insoluble in water
2 | CC(=O)O[C@@]12CO[C@@H]1C[C@H](O)[C@@]1(C)C(=O)[C@H](O)C3=C(C)[C@@H](OC(=O)[C@H](O)[C@@H](NC(=O)OC(C)(C)C)c4ccccc4)C[C@@](O)([C@@H](OC(=O)c4ccccc4)[C@H]21)C3(C)C [docetaxel] | insoluble in water
3 | ivermectin | practically insoluble in water

Test: not given
Settings: chloroform/water; cited from earlier work

Row | Compound | partition coefficient chloroform/water: log P
4 | ivermectin | 3

Same assay, conditions: ethyl acetate/water; cited from earlier work

Row | Compound | partition coefficient ethyl acetate/water: log P
5 | ivermectin | 4

Test: not given
Settings: cited from earlier work
Remark: another data set of the same source

Row | Compound | log P
6 | CCCSc1ccc2nc(NC(=O)OC)[nH]c2c1 [albendazole] | 3.22

Same assay, conditions: octanol/water partition coefficient; cited from earlier work

Row | Compound | log P
7 | CC(C)(Oc1ccc(CCNC(=O)c2ccc(Cl)cc2)cc1)C(=O)O [bezafibrate] | 3.53
8 | CC1=C(/C=C/C(C)=C/C=C/C(C)=C/CO)C(C)(C)CCC1 [retinol] | 5.68
9 | CC[C@H](C)C(=O)O[C@H]1C[C@@H](C)C=C2C=C[C@H](C)[C@H](CC[C@@H]3C[C@@H](O)CC(=O)O3)[C@H]21 [lovastatin] | 4.04
10 | COC(=O)[C@@H]1[C@H]2C[C@H]3c4[nH]c5ccccc5c4CCN3C[C@@H]2CC[C@@H]1O [yohimbine] | 2.73
11 | OCCSCCCCCCCCCCSCCO [tiadenol] | 4.58
12 | O=C(Nc1ccc(Oc2ccc(Cl)cc2)c(Cl)c1)c1cc(I)cc(I)c1O [rafoxanide] | 8.75
13 | CCOC(=O)C(C)(C)Oc1ccc(Cl)cc1 [clofibrate] | 3.65
14 | OC(c1cc(C(F)(F)F)nc2c(C(F)(F)F)cccc12)C1CCCCN1 (centres unmarked) [mefloquin] | 3.36
15 | CC1=CC(=O)c2ccccc2C1=O [menadione] | 8
16 | CC(C)(C)c1ccc(C(O)CCCN2CCC(C(O)(c3ccccc3)c3ccccc3)CC2)cc1 (centres unmarked) [terfenadine] | 3.22
17 | CC(C)(Oc1ccc(C2CC2(Cl)Cl)cc1)C(=O)O (centres unmarked) [ciprofibrate] | 3.15
18 | CSc1nc2cc(Cl)c(Oc3cccc(Cl)c3Cl)cc2[nH]1 [triclabendazole] | 6.45
19 | O=C1c2ccccc2C(=O)C1c1ccccc1 [phenyl indanedione] | 2.90
20 | O=C(Nc1ccc(Br)cc1)c1cc(Br)cc(Br)c1O [tribromosalan] | 5.86
21 | c1ccc2[nH]c(-c3cscn3)nc2c1 [tiabendazole] | 2.31
22 | CC[C@H](C)C(=O)O[C@H]1CCC=C2C=C[C@H](C)[C@H](CC[C@@H]3C[C@@H](O)CC(=O)O3)[C@H]21 [mevastatin] | 3.52
23 | Cc1ccc(C)c(OCCCC(C)(C)C(=O)O)c1 [gemfibrozil] | 3.90
24 | CCCc1nc2c(C)cc(-c3nc4ccccc4n3C)cc2n1Cc1ccc(-c2ccccc2C(=O)O)cc1 [telmisartan] | 4.8

Row | Compound | log P
25 | Cc1c([N+](=O)[O-])cc(C(C)(C)C)c(O)c1C(=O)Nc1ccc(Br)cc1C(F)(F)F [bromoxanide] | 5.65
26 | COC(=O)Nc1nc2ccc(Sc3ccccc3)cc2[nH]1 [fenbendazole] | 4.26
27 | O=C(Nc1ccc(Br)cc1)c1cc(Br)ccc1O [dibromosalan] | 5.18
28 | CN(C/C=C/C#CC(C)(C)C)Cc1cccc2ccccc12 [terbinafin] | 5.42
29 | CC(C)C(=O)Nc1ccc([N+](=O)[O-])c(C(F)(F)F)c1 [flutamide] | 3.5
30 | CCN(CC)C(=O)Nc1ccc(OCC(O)CNC(C)(C)C)c(C(C)=O)c1 (centres unmarked) [celiprolol] | 2.07
31 | Cc1nccn1CC1CCc2c(c3ccccc3n2C)C1=O (centres unmarked) [ondansetron] | 2.63
32 | CC[C@H]1OC(=O)[C@H](C)[C@@H](O[C@H]2C[C@@](C)(OC)[C@@H](O)[C@H](C)O2)[C@H](C)[C@@H](O[C@@H]2O[C@H](C)C[C@H](N(C)C)[C@H]2O)[C@](C)(O)C[C@@H](C)/C(=N\OCOCCOC)[C@H](C)[C@@H](O)[C@]1(C)O [roxithromycin] | ~2.5
33 | CO[C@@H]1[C@@H](O[C@@H]2O[C@H](C)[C@@H](O[C@H]3C[C@@](C)(O)[C@@H](OC(=O)CC(C)C)[C@H](C)O3)[C@H](N(C)C)[C@H]2O)[C@@H](CC=O)C[C@@H](C)[C@@H](O)/C=C/C=C/C[C@@H](C)OC(=O)C[C@H]1OC(C)=O [josamycin] | 2.39
34 | CC(=O)Oc1c(I)cc(I)cc1C(=O)Nc1ccc(Cl)cc1 [clioxanide] | 5.45
35 | Cc1c2ccncc2c(C)c2c1[nH]c1ccccc12 [ellipticine] | 4.80
36 | Cc1cc(C(C#N)c2ccc(Cl)cc2)c(Cl)cc1NC(=O)c1cc(I)cc(I)c1O (centres unmarked) [closantel] | > 7
37 | CCOC(=O)C1=C(C)NC(C)=C(C(=O)OC)C1c1cccc([N+](=O)[O-])c1 (centres unmarked) [nitrendipine] | 3.7
38 | Cc1cccc(Nc2ccccc2C(=O)O)c1C [mefenamic acid] | 5.3
39 | O=C(Nc1cc(Cl)cc(Cl)c1O)c1c(O)c(Cl)cc(Cl)c1Cl [oxyclozanide] | 5.35
40 | CC(=O)Oc1c(Br)cc(Cl)cc1C(=S)Nc1ccc(Br)cc1 [brotianide] | 5.30
41 | CCC(C)n1ncn(-c2ccc(N3CCN(c4ccc(OCC5COC(Cn6cncn6)(c6ccc(Cl)cc6Cl)O5)cc4)CC3)cc2)c1=O (centres unmarked) [itraconazole] | 5.68
42 | COC(=O)Nc1nc2ccc(C(=O)c3ccccc3)cc2[nH]1 [mebendazole] | 3.10

Test: dissolution trials: solubility of the active principle in the cosurfactant
Format: physicochemical
Settings: cosurfactant Capryol

Row | solubility in propylene glycol monocaprylate (Capryol) [%] | Compound
43 | 5 | CC(=O)[C@H]1CC[C@H]2[C@@H]3CCC4=CC(=O)CC[C@]4(C)[C@H]3CC[C@]12C [progesterone]

Same assay, conditions: cosurfactant Transcutol

Row | solubility in monoethyl ether of diethylene glycol (Transcutol) [%] | Compound
44 | 3 | CC1=C(/C=C/C(C)=C/C=C/C(C)=C\C(=O)O)C(C)(C)CCC1 [isotretinoin, 13-cis-retinoic acid]
